Results taken from patent US20210393810A1, “DIHYDRAZONE COMPOUNDS HAVING HIGH AFFINITY TO A BETA PROTEIN AND TAU PROTEIN, DERIVATIVES THEREOF AND USE THEREOF” (HTA CO., LTD., priority 2019, published 2021).

What was measured:
Aβ1-42 aggregates = target: T1, Aβ1-42 aggregates (Homo sapiens, UniProt P05067); assay: Competitive binding experiment with [125I]IMPY; conditions: competition with [125I]IMPY, Aβ1-42, 37° C., 3 hours
T1 construct: preparing Aβ1-42 proteins according to the known methods
Procedure: (1) formulating a 0.1% BSA solution with pH=7.4;
(2) preparing a radioligand [125I] IMPY according to the known methods; formulating [125I] IMPY into a solution of 60000-100000 cpm/100 μL for later use;
(3) formulating the compound to be tested into a 10^−5 to 10^−11 mol/L serially diluted ethanol solution;
(4) preparing Aβ1-42 proteins according to the known methods, and diluting it into an aqueous solution of about 30 nM;
(5) soaking a glass fiber filter membrane in PBS solution containing 0.1% polyethyleneimine for 30 minutes;
(6) adding 100 μL of the test compound solutions with different concentrations and 100 μL of [125I] IMPY solution, 700 μL of BSA solution and 100 μL of Aβ1-42 solution into a 12 mm×75 mm borosilicate glass tube, and vortexing;
(7) incubating with shaking in a constant temperature water bath at 37° C. for 3 hours;
(8) collecting the reaction solution by a multi-head cell collector, and rinsing the reaction solution for three times with 10% ethanol solution;
(9) measuring and counting with a gamma counter;
(10) analyzing and processing data using GraphPrad Prism 5.01 to obtain an affinity constant Ki.
Activity between some compounds and Aβ1-42 aggregates was quantitatively determined by the method.

[1] = Biodistribution experiment in normal mice; type: in vivo, mice (ICR, male); conditions: for biodistribution, blood / biodistribution, brain: normal ICR mice; for clearance from the brain / passage through the blood-brain barrier / time at which the brain uptake reaches its peak: normal mice; for time at which the brain uptake reaches its peak: after injection
Procedure: Pharmacokinetic properties in mice, especially the initial brain uptake and brain clearance, were studied through distribution experiments in vivo.
5-10 μCi labelled compounds (100 μL physiological saline solution, containing 10% ethanol) were injected into normal mice (ICR, male, 20-22 g, 5 weeks old) through the tail vein (n=5), and mice were decapitated at 2 minutes, 10 minutes, 30 minutes and 60 minutes after injection, respectively, and organs to be tested were took out by dissection, and the wet weight was measured and radioactive counting was conducted. Data is expressed as the percentage of radioactive dose per gram of organ (% ID/g).

[2] = 2 min after tail vein injection
[3] = 10 min after tail vein injection
[4] = 30 min after tail vein injection
[5] = 60 min after tail vein injection

T1 sequence (P05067 672-713): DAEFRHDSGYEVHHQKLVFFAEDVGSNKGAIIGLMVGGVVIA

CNc1ccc(/C=N/N=C/c2ccc(NC)cc2)cc1 [Compound 9]
Ki (Aβ1-42 aggregates): 45.2 ± 18.4 nM

CCN(CC)c1ccc(/C=N/N=C/c2ccc(N(CC)CC)cc2)cc1 [Compound 11]
Ki (Aβ1-42 aggregates): 5.1 ± 1.87 nM

C(=N\N=C\c1ccc(N2CCCC2)cc1)/c1ccc(N2CCCC2)cc1 [Compound 13]
Ki (Aβ1-42 aggregates): 1.2 ± 0.25 nM

C(=N\N=C\c1ccc(N2CCCCC2)cc1)/c1ccc(N2CCCCC2)cc1 [Compound 14]
Ki (Aβ1-42 aggregates): 1.39 ± 0.25 nM

C(=N\N=C\c1ccc(N2CCOCC2)cc1)/c1ccc(N2CCOCC2)cc1 [Compound 15]
Ki (Aβ1-42 aggregates): 147 ± 2.06 nM

CN(C)c1ncc(/C=N/N=C/c2cnc(N(C)C)nc2)cn1 [Compound 17]
Ki (Aβ1-42 aggregates): 124 ± 21.7 nM

CNc1ccc(/C=N/N=C/c2ccc(N(C)C)cc2)cc1 [Compound 36]
Ki (Aβ1-42 aggregates): 35.1 ± 19.3 nM

CNc1ccc(/C=N/N=C/c2ccc(O)cc2)cc1 [Compound 63]
Ki (Aβ1-42 aggregates): 277 ± 50.5 nM

CN(C)c1ccc(/C=N/N=C/c2ccc(OCCF)cc2)cc1 [Compound 87]
Ki (Aβ1-42 aggregates): 5.17 ± 1.4 nM

CNc1ccc(/C=N/N=C/c2ccc(OCCF)cc2)cc1 [Compound 88]
Ki (Aβ1-42 aggregates): 10.4 ± 6.71 nM

CN(C)c1ccc(/C=N/N=C/c2ccc(OCCOCCF)cc2)cc1 [Compound 89]
Ki (Aβ1-42 aggregates): 2.45 ± 1.7 nM

CNc1ccc(/C=N/N=C/c2ccc(OCCOCCF)cc2)cc1 [Compound 90]
Ki (Aβ1-42 aggregates): 8.07 ± 2.89 nM

CN(C)c1ccc(/C=N/N=C/c2ccc(OCCOCCOCCF)cc2)cc1 [Compound 91]
Ki (Aβ1-42 aggregates): 6.38 ± 0.72 nM

CNc1ccc(/C=N/N=C/c2ccc(OCCOCCOCCF)cc2)cc1 [Compound 92]
Ki (Aβ1-42 aggregates): 46.4 ± 15.5 nM

CN(C)c1ccc(/C=N/N=C/c2ccc(OCCOCCOCCF)nc2)cc1 [Compound 93]
Ki (Aβ1-42 aggregates): 10.9 ± 0.97 nM

CNc1ccc(/C=N/N=C/c2ccc(OCCOCCOCCF)nc2)cc1 [Compound 94]
Ki (Aβ1-42 aggregates): 42.9 ± 20.5 nM

CN(C)c1ccc(/C=N/N=C/c2ccc(OCC[18F])cc2)cc1 [[18F]87]
biodistribution, blood [1, 2]: 3.98 ± 0.24 % ID/g
biodistribution, blood [1, 3]: 3.36 ± 0.19 % ID/g
biodistribution, blood [1, 4]: 3.00 ± 0.13 % ID/g
biodistribution, blood [1, 5]: 2.73 ± 0.42 % ID/g
biodistribution, brain [1, 2]: 10.66 ± 0.89 % ID/g
biodistribution, brain [1, 3]: 11.00 ± 0.80 % ID/g
biodistribution, brain [1, 4]: 6.69 ± 0.42 % ID/g
biodistribution, brain [1, 5]: 4.56 ± 0.58 % ID/g
clearance from the brain [1]: cleared faster in the brain of normal mice
passage through the blood-brain barrier [1]: can effectively pass through the blood-brain barrier
time at which the brain uptake reaches its peak [1]: 2 min

CNc1ccc(/C=N/N=C/c2ccc(OCC[18F])cc2)cc1 [[18F]88]
biodistribution, blood [1, 2]: 3.32 ± 0.26 % ID/g
biodistribution, blood [1, 3]: 3.57 ± 0.34 % ID/g
biodistribution, blood [1, 4]: 3.31 ± 0.13 % ID/g
biodistribution, blood [1, 5]: 2.90 ± 0.32 % ID/g
biodistribution, brain [1, 2]: 9.21 ± 0.63 % ID/g
biodistribution, brain [1, 3]: 8.24 ± 0.36 % ID/g
biodistribution, brain [1, 4]: 4.81 ± 0.27 % ID/g
biodistribution, brain [1, 5]: 3.02 ± 0.15 % ID/g
clearance from the brain [1]: cleared faster in the brain of normal mice
passage through the blood-brain barrier [1]: can effectively pass through the blood-brain barrier
time at which the brain uptake reaches its peak [1]: 2 min

CN(C)c1ccc(/C=N/N=C/c2ccc(OCCOCC[18F])cc2)cc1 [[18F]89]
biodistribution, blood [1, 2]: 2.95 ± 0.31 % ID/g
biodistribution, blood [1, 3]: 3.24 ± 1.25 % ID/g
biodistribution, blood [1, 4]: 4.78 ± 0.24 % ID/g
biodistribution, blood [1, 5]: 5.42 ± 0.65 % ID/g
biodistribution, brain [1, 2]: 10.88 ± 0.75 % ID/g
biodistribution, brain [1, 3]: 10.62 ± 0.58 % ID/g
biodistribution, brain [1, 4]: 6.06 ± 0.38 % ID/g
biodistribution, brain [1, 5]: 4.55 ± 0.48 % ID/g
clearance from the brain [1]: cleared faster in the brain of normal mice
passage through the blood-brain barrier [1]: can effectively pass through the blood-brain barrier
time at which the brain uptake reaches its peak [1]: 2 min

CNc1ccc(/C=N/N=C/c2ccc(OCCOCC[18F])cc2)cc1 [[18F]90]
biodistribution, blood [1, 2]: 3.72 ± 0.44 % ID/g
biodistribution, blood [1, 3]: 3.85 ± 0.26 % ID/g
biodistribution, blood [1, 4]: 4.90 ± 0.61 % ID/g
biodistribution, blood [1, 5]: 5.44 ± 0.40 % ID/g
biodistribution, brain [1, 2]: 11.05 ± 1.70 % ID/g
biodistribution, brain [1, 3]: 7.81 ± 0.60 % ID/g
biodistribution, brain [1, 4]: 4.92 ± 0.41 % ID/g
biodistribution, brain [1, 5]: 3.97 ± 0.28 % ID/g
clearance from the brain [1]: cleared faster in the brain of normal mice
passage through the blood-brain barrier [1]: can effectively pass through the blood-brain barrier
time at which the brain uptake reaches its peak [1]: 2 min

CN(C)c1ccc(/C=N/N=C/c2ccc(OCCOCCOCC[18F])cc2)cc1 [[18F]91]
biodistribution, blood [1, 2]: 3.08 ± 0.45 % ID/g
biodistribution, blood [1, 3]: 2.86 ± 0.28 % ID/g
biodistribution, blood [1, 4]: 3.83 ± 0.27 % ID/g
biodistribution, blood [1, 5]: 3.66 ± 0.40 % ID/g
biodistribution, brain [1, 2]: 10.39 ± 1.07 % ID/g
biodistribution, brain [1, 3]: 7.56 ± 0.91 % ID/g
biodistribution, brain [1, 4]: 2.93 ± 0.13 % ID/g
biodistribution, brain [1, 5]: 1.60 ± 0.10 % ID/g
clearance from the brain [1]: cleared faster in the brain of normal mice
passage through the blood-brain barrier [1]: can effectively pass through the blood-brain barrier
time at which the brain uptake reaches its peak [1]: 2 min

CNc1ccc(/C=N/N=C/c2ccc(OCCOCCOCC[18F])cc2)cc1 [[18F]92]
biodistribution, blood [1, 2]: 3.81 ± 0.35 % ID/g
biodistribution, blood [1, 3]: 3.06 ± 0.49 % ID/g
biodistribution, blood [1, 4]: 3.26 ± 0.17 % ID/g
biodistribution, blood [1, 5]: 3.05 ± 0.45 % ID/g
biodistribution, brain [1, 2]: 7.84 ± 0.50 % ID/g
biodistribution, brain [1, 3]: 3.94 ± 0.13 % ID/g
biodistribution, brain [1, 4]: 1.88 ± 0.03 % ID/g
biodistribution, brain [1, 5]: 1.17 ± 0.07 % ID/g
clearance from the brain [1]: cleared faster in the brain of normal mice
passage through the blood-brain barrier [1]: can effectively pass through the blood-brain barrier
time at which the brain uptake reaches its peak [1]: 2 min

CN(C)c1ccc(/C=N/N=C/c2ccc(OCCOCCOCC[18F])nc2)cc1 [[18F]93]
biodistribution, blood [1, 2]: 3.53 ± 0.24 % ID/g
biodistribution, blood [1, 3]: 3.16 ± 1.00 % ID/g
biodistribution, blood [1, 4]: 3.64 ± 0.29 % ID/g
biodistribution, blood [1, 5]: 2.46 ± 0.33 % ID/g
biodistribution, brain [1, 2]: 11.39 ± 1.08 % ID/g
biodistribution, brain [1, 3]: 5.55 ± 0.37 % ID/g
biodistribution, brain [1, 4]: 2.41 ± 0.22 % ID/g
biodistribution, brain [1, 5]: 1.44 ± 0.15 % ID/g
clearance from the brain [1]: cleared faster in the brain of normal mice
passage through the blood-brain barrier [1]: can effectively pass through the blood-brain barrier
time at which the brain uptake reaches its peak [1]: 2 min

CNc1ccc(/C=N/N=C/c2ccc(OCCOCCOCC[18F])nc2)cc1 [[18F]94]
biodistribution, blood [1, 2]: 4.30 ± 0.09 % ID/g
biodistribution, blood [1, 3]: 3.40 ± 0.28 % ID/g
biodistribution, blood [1, 4]: 3.66 ± 0.18 % ID/g
biodistribution, blood [1, 5]: 2.59 ± 0.15 % ID/g
biodistribution, brain [1, 2]: 8.59 ± 0.57 % ID/g
biodistribution, brain [1, 3]: 4.09 ± 0.38 % ID/g
biodistribution, brain [1, 4]: 2.40 ± 0.15 % ID/g
biodistribution, brain [1, 5]: 1.36 ± 0.13 % ID/g
clearance from the brain [1]: cleared faster in the brain of normal mice
passage through the blood-brain barrier [1]: can effectively pass through the blood-brain barrier
time at which the brain uptake reaches its peak [1]: 2 min
